Laboratory results from the supplement of paper PMC10307832.

Assays:
Assay in all cases: relative viability (nuclei count vs DMSO), 5 days (fraction); higher = more cells survive
[1] = tested on: NCI-H322M
How it was run: (§1)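 Lung cancer cell lines in 1536-well plates got either a single drug or a fixed anchor-drug dose together with five library-drug doses (not always all listed) in √10 steps, by pin tool, on the day after seeding. Nuclei were counted after 5 days, and relative viability is the treated-to-vehicle ratio of nuclei counts. Values are medians of duplicate plates.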

[2] = tested on: NCI-H2170
How it was run: as §1

[3] = tested on: NCI-H23
How it was run: as §1

[4] = tested on: HCC-44
How it was run: as §1

[5] = tested on: NCI-H2347
How it was run: as §1

[6] = tested on: NCI-H838
How it was run: as §1

[7] = tested on: NCI-H1666
How it was run: as §1

[8] = tested on: NCI-H1395
How it was run: as §1

[9] = tested on: 201T
How it was run: as §1

[10] = tested on: NCI-H2085
How it was run: as §1

[11] = tested on: NCI-H661
How it was run: as §1

[12] = tested on: HOP-62
How it was run: as §1

[13] = tested on: NCI-H1651
How it was run: as §1

[14] = tested on: NCI-H520
How it was run: as §1

[15] = tested on: NCI-H1355
How it was run: as §1

[16] = tested on: NCI-H2228
How it was run: as §1

[17] = tested on: NCI-H647
How it was run: as §1

[18] = tested on: CAL-12T
How it was run: as §1

[19] = tested on: LCLC-103H
How it was run: as §1

[20] = tested on: NCI-H1993
How it was run: as §1

[21] = tested on: COR-L23
How it was run: as §1

[22] = tested on: LC-2-ad
How it was run: as §1

Work on `O=c1[nH]c2ccccc2n1C1CCN(CCCC(c2ccc(F)cc2)c2ccc(F)cc2)CC1` [Pimozide] + CC(=O)Nc1cccc(-n2c(=O)n(C3CC3)c(=O)c3c(Nc4ccc(I)cc4F)n(C)c(=O)c(C)c32)c1 [Trametinib] (partner 0.02 µM) yielded a relative viability ([1]; first compound 0.08 µM) of 0.402, a relative viability ([1]; first compound 0.253 µM) of 0.505 and a relative viability ([1]; first compound 0.8 µM) of 0.538. It also gave a relative viability ([1]; first compound 2.53 µM) of 0.546, a relative viability ([1]; first compound 8 µM) of 0.54 and a relative viability ([2]; first compound 0.08 µM) of 0.943. For the same molecule, the relative viability ([2]; first compound 0.253 µM) was 0.874, the relative viability ([2]; first compound 0.8 µM) was 0.832 and the relative viability ([2]; first compound 2.53 µM) was 0.83. The relative viability ([2]; first compound 8 µM) was 0.857, the relative viability ([3]; first compound 0.08 µM) was 0.377 and the relative viability ([3]; first compound 0.253 µM) was 0.369. It also gave a relative viability ([3]; first compound 0.8 µM) of 0.291, a relative viability ([3]; first compound 2.53 µM) of 0.369 and a relative viability ([3]; first compound 8 µM) of 0.318. For the same molecule, the relative viability ([4]; first compound 0.08 µM) was 1.1, the relative viability ([4]; first compound 0.253 µM) was 1.18 and the relative viability ([4]; first compound 0.8 µM) was 0.913. The relative viability ([4]; first compound 2.53 µM) was 0.979, the relative viability ([4]; first compound 8 µM) was 0.887 and the relative viability ([5]; first compound 0.08 µM) was 0.288. It also gave a relative viability ([5]; first compound 0.253 µM) of 0.307, a relative viability ([5]; first compound 0.8 µM) of 0.287 and a relative viability ([5]; first compound 2.53 µM) of 0.278. The relative viability ([5]; first compound 8 µM) was 0.285, the relative viability ([6]; first compound 0.08 µM) was 0.536 and the relative viability ([6]; first compound 0.253 µM) was 0.561. The relative viability ([6]; first compound 0.8 µM) was 0.482, the relative viability ([6]; first compound 2.53 µM) was 0.528 and the relative viability ([6]; first compound 8 µM) was 0.571. For the same molecule, the relative viability ([7]; first compound 0.08 µM) was 0.888, the relative viability ([7]; first compound 0.253 µM) was 0.804 and the relative viability ([7]; first compound 0.8 µM) was 0.835. It also gave a relative viability ([7]; first compound 2.53 µM) of 0.866, a relative viability ([7]; first compound 8 µM) of 0.787 and a relative viability ([8]; first compound 0.08 µM) of 0.929. The relative viability ([8]; first compound 0.253 µM) was 0.924, the relative viability ([8]; first compound 0.8 µM) was 0.993 and the relative viability ([8]; first compound 2.53 µM) was 1.09. It also gave a relative viability ([8]; first compound 8 µM) of 0.916, a relative viability ([9]; first compound 0.08 µM) of 0.717 and a relative viability ([9]; first compound 0.253 µM) of 0.726. For the same molecule, the relative viability ([9]; first compound 0.8 µM) was 0.7, the relative viability ([9]; first compound 2.53 µM) was 0.732 and the relative viability ([9]; first compound 8 µM) was 0.686. For the same molecule, the relative viability ([10]; first compound 0.08 µM) was 0.659, the relative viability ([10]; first compound 0.253 µM) was 0.625 and the relative viability ([10]; first compound 0.8 µM) was 0.583. It also gave a relative viability ([10]; first compound 2.53 µM) of 0.404, a relative viability ([10]; first compound 8 µM) of 0.399 and a relative viability ([11]; first compound 0.08 µM) of 0.598. For the same molecule, the relative viability ([11]; first compound 0.253 µM) was 0.583, the relative viability ([11]; first compound 0.8 µM) was 0.498 and the relative viability ([11]; first compound 2.53 µM) was 0.492. It also gave a relative viability ([11]; first compound 8 µM) of 0.409, a relative viability ([12]; first compound 0.08 µM) of 0.362 and a relative viability ([12]; first compound 0.253 µM) of 0.347. The relative viability ([12]; first compound 2.53 µM) was 0.328, the relative viability ([12]; first compound 8 µM) was 0.389 and the relative viability ([13]; first compound 0.08 µM) was 0.833. The relative viability ([13]; first compound 0.253 µM) was 0.79, the relative viability ([13]; first compound 0.8 µM) was 0.829 and the relative viability ([13]; first compound 2.53 µM) was 0.82. For the same molecule, the relative viability ([13]; first compound 8 µM) was 0.853, the relative viability ([14]; first compound 0.08 µM) was 0.632 and the relative viability ([14]; first compound 0.253 µM) was 0.68. It also gave a relative viability ([14]; first compound 0.8 µM) of 0.627, a relative viability ([14]; first compound 2.53 µM) of 0.601 and a relative viability ([14]; first compound 8 µM) of 0.54. For the same molecule, the relative viability ([15]; first compound 0.08 µM) was 0.382, the relative viability ([15]; first compound 0.253 µM) was 0.428 and the relative viability ([15]; first compound 0.8 µM) was 0.411. For the same molecule, the relative viability ([15]; first compound 2.53 µM) was 0.39, the relative viability ([15]; first compound 8 µM) was 0.454 and the relative viability ([16]; first compound 0.08 µM) was 0.514. It also gave a relative viability ([16]; first compound 0.253 µM) of 0.475, a relative viability ([16]; first compound 0.8 µM) of 0.522 and a relative viability ([16]; first compound 2.53 µM) of 0.418. For the same molecule, the relative viability ([16]; first compound 8 µM) was 0.167, the relative viability ([17]; first compound 0.08 µM) was 0.555 and the relative viability ([17]; first compound 0.253 µM) was 0.491. For the same molecule, the relative viability ([17]; first compound 0.8 µM) was 0.476, the relative viability ([17]; first compound 2.53 µM) was 0.316 and the relative viability ([17]; first compound 8 µM) was 0.353. The relative viability ([18]; first compound 0.08 µM) was 0.326, the relative viability ([18]; first compound 0.253 µM) was 0.291 and the relative viability ([18]; first compound 0.8 µM) was 0.34. It also gave a relative viability ([18]; first compound 2.53 µM) of 0.272, a relative viability ([18]; first compound 8 µM) of 0.251 and a relative viability ([19]; first compound 0.08 µM) of 0.676. The relative viability ([19]; first compound 0.253 µM) was 0.656, the relative viability ([19]; first compound 0.8 µM) was 0.642 and the relative viability ([19]; first compound 2.53 µM) was 0.631. The relative viability ([19]; first compound 8 µM) was 0.669, the relative viability ([20]; first compound 0.08 µM) was 0.561 and the relative viability ([20]; first compound 0.253 µM) was 0.495. For the same molecule, the relative viability ([20]; first compound 0.8 µM) was 0.596, the relative viability ([20]; first compound 2.53 µM) was 0.484 and the relative viability ([20]; first compound 8 µM) was 0.553. For the same molecule, the relative viability ([21]; first compound 0.08 µM) was 0.541, the relative viability ([21]; first compound 0.253 µM) was 0.596 and the relative viability ([21]; first compound 0.8 µM) was 0.602. For the same molecule, the relative viability ([21]; first compound 2.53 µM) was 0.629, the relative viability ([21]; first compound 8 µM) was 0.478 and the relative viability ([22]; first compound 0.08 µM) was 0.886. The relative viability ([22]; first compound 0.253 µM) was 0.819, the relative viability ([22]; first compound 0.8 µM) was 0.893 and the relative viability ([22]; first compound 2.53 µM) was 0.904. For the same molecule, the relative viability ([22]; first compound 8 µM) was 0.897.
